Measured values as given in ChEMBL document CHEMBL4507310, “Data for DCP probe A-1211212” (2021).

Columns and labels:
[1] = target: Serine/threonine-protein kinase BRSK1 (Homo sapiens) (UniProt Q8TDC3); details: Compound concentration 1000.0 nM
[2] = target: Calcium/calmodulin-dependent protein kinase type II subunit delta (Homo sapiens) (UniProt Q13557); details: Compound concentration 1000.0 nM
[3] = tested on: Phosphatidylinositol 4,5-bisphosphate 3-kinase catalytic subunit alpha isoform (Homo sapiens), P42336 [H1047L]; details: Compound concentration 1000.0 nM
[4] = tested on: Tyrosine-protein kinase ABL1 (Homo sapiens), P00519 [E255K]; details: Compound concentration 1000.0 nM
[5] = target: Dual specificity tyrosine-phosphorylation-regulated kinase 1B (Homo sapiens) (UniProt Q9Y463); details: Compound concentration 1000.0 nM
[6] = target: Ribosomal protein S6 kinase alpha-2 (Homo sapiens) (UniProt Q15349); details: Compound concentration 1000.0 nM
[7] = target: GABA-A receptor; anion channel (Rattus norvegicus) (UniProt O09028+P15431+P18506+P18508+P19969+P20236+P23574+P23576+P28471+P28473+P30191+P62813+P63079+P63138+Q91ZM7+Q9ES14); experiment: BZD (central) Eurofins-Cerep binding assay; type: protein-complex assay; parameters: ligand concentration 0.4 nM; details: filed as agonist, Compound concentration 10.0 uM
[8] = target: Serine/threonine-protein kinase N1 (Homo sapiens) (UniProt Q16512); details: Compound concentration 1000.0 nM
[9] = target: Serine/threonine-protein kinase ULK2 (Homo sapiens) (UniProt Q8IYT8); details: Compound concentration 1000.0 nM
[10] = tested on: Receptor-type tyrosine-protein kinase FLT3 (Homo sapiens), P36888 [D835H]; details: Compound concentration 1000.0 nM
[11] = target: Serine/threonine-protein kinase WNK3 (Homo sapiens) (UniProt Q9BYP7); details: Compound concentration 1000.0 nM
[12] = target: Fibroblast growth factor receptor 3 (Homo sapiens) (UniProt P22607); details: Compound concentration 1000.0 nM
[13] = target: Serine/threonine-protein kinase 38 (Homo sapiens) (UniProt Q15208); details: Compound concentration 1000.0 nM
[14] = target: Delta-type opioid receptor (Homo sapiens) (UniProt P41143); experiment: delta (DOP) (h) Eurofins-Cerep binding assay; parameters: ligand concentration 0.5 nM; details: filed as agonist, Compound concentration 10.0 uM
[15] = target: Serine/threonine-protein kinase 32A (Homo sapiens) (UniProt Q8WU08); details: Compound concentration 1000.0 nM
[16] = target: Receptor-interacting serine/threonine-protein kinase 2 (Homo sapiens) (UniProt O43353); details: Compound concentration 1000.0 nM
[17] = target: Death-associated protein kinase 1 (Homo sapiens) (UniProt P53355); details: Compound concentration 1000.0 nM
[18] = target: Protein-tyrosine kinase 2-beta (Homo sapiens) (UniProt Q14289); details: Compound concentration 1000.0 nM
[19] = target: Histamine H2 receptor (Homo sapiens) (UniProt P25021); experiment: H2 (h) Eurofins-Cerep binding assay; parameters: ligand concentration 0.075 nM; details: filed as antagonist, Compound concentration 10.0 uM
[20] = target: BDNF/NT-3 growth factors receptor (Homo sapiens) (UniProt Q16620); details: Compound concentration 1000.0 nM
[21] = tested on: Mast/stem cell growth factor receptor Kit (Homo sapiens), P10721 [D816V]; details: Compound concentration 1000.0 nM
[22] = target: Myosin light chain kinase, smooth muscle (Homo sapiens) (UniProt Q15746); details: Compound concentration 1000.0 nM
[23] = target: Ephrin type-A receptor 7 (Homo sapiens) (UniProt Q15375); details: Compound concentration 1000.0 nM
[24] = target: T1, 5-hydroxytryptamine receptor 3A (Homo sapiens) (UniProt P46098); experiment: 5-HT3 (h) Eurofins-Cerep binding assay; parameters: ligand concentration 0.5 nM; details: filed as antagonist, Compound concentration 10.0 uM
T1 sequence (whole entry): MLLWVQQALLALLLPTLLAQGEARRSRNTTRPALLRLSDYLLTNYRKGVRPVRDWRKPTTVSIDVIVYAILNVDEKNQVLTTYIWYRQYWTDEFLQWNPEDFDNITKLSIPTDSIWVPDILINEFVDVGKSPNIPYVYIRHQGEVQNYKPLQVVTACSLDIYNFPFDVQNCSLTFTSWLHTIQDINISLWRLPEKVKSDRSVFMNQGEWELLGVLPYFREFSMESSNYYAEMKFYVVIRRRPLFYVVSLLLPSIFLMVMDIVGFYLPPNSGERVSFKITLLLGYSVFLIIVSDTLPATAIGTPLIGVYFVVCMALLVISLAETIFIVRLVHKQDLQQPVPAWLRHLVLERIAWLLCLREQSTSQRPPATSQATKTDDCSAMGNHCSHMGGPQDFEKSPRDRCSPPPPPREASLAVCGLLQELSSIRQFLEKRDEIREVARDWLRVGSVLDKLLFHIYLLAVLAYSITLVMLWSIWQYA

[25] = target: Mitogen-activated protein kinase 10 (Homo sapiens) (UniProt P53779); details: Compound concentration 1000.0 nM
[26] = target: Non-receptor tyrosine-protein kinase TNK1 (Homo sapiens) (UniProt Q13470); details: Compound concentration 1000.0 nM
[27] = target: Mitogen-activated protein kinase kinase kinase 12 (Homo sapiens) (UniProt Q12852); details: Compound concentration 1000.0 nM
[28] = target: Serine/threonine-protein kinase MAK (Homo sapiens) (UniProt P20794); details: Compound concentration 1000.0 nM
[29] = target: Mast/stem cell growth factor receptor Kit (Homo sapiens) (UniProt P10721); details: Compound concentration 1000.0 nM
[30] = target: Mitogen-activated protein kinase kinase kinase 19 (Homo sapiens) (UniProt Q56UN5); details: Compound concentration 1000.0 nM
[31] = target: cGMP-dependent protein kinase 1 (Homo sapiens) (UniProt Q13976); details: Compound concentration 1000.0 nM
[32] = target: Muscarinic acetylcholine receptor M3 (Homo sapiens) (UniProt P20309); details: Compound concentration 10.0 uM
[33] = target: P2X receptor (Rattus norvegicus) (UniProt P51579+P49653+P51578+Q64663+P47824+P51577+P49654); experiment: P2X Eurofins-Cerep binding assay; type: protein assay; parameters: ligand concentration 3 nM; details: filed as agonist, Compound concentration 10.0 uM
[34] = target: Dual specificity protein kinase CLK2 (Homo sapiens) (UniProt P49760); details: Compound concentration 1000.0 nM
[35] = target: 5-hydroxytryptamine receptor 1D (Homo sapiens) (UniProt P28221); details: Compound concentration 10.0 uM
[36] = tested on: ALK tyrosine kinase receptor (Homo sapiens), Q9UM73 [C1156Y]; details: Compound concentration 1000.0 nM

Serine/threonine-protein kinase ULK2 (Homo sapiens), sequence (Q8IYT8 whole entry): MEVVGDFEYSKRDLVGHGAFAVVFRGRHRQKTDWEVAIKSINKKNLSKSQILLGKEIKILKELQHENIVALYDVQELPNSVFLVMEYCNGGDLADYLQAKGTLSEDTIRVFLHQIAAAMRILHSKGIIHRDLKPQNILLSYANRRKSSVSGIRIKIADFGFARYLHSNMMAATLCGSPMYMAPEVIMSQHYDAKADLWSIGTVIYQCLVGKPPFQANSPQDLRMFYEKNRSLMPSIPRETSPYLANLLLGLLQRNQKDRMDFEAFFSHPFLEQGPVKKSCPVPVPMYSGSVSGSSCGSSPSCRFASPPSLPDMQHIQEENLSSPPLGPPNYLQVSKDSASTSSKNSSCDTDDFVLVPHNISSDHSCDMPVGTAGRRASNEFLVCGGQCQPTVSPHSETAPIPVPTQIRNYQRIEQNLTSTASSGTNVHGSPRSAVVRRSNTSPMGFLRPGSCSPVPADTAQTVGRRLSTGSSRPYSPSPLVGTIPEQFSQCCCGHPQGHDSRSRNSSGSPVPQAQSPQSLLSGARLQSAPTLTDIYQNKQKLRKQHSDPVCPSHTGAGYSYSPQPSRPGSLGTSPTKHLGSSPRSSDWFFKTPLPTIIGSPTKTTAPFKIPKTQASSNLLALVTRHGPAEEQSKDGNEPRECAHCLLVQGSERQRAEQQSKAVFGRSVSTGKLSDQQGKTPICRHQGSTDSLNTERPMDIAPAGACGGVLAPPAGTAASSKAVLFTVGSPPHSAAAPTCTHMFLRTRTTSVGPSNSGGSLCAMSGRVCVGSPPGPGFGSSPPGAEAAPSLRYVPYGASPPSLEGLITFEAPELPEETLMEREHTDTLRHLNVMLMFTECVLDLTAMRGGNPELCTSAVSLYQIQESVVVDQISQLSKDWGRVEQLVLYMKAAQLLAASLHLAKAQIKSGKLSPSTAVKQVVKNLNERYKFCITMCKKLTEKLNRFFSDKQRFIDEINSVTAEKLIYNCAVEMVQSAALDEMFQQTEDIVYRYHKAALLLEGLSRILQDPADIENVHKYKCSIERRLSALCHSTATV
Mast/stem cell growth factor receptor Kit (Homo sapiens), sequence (P10721 whole entry): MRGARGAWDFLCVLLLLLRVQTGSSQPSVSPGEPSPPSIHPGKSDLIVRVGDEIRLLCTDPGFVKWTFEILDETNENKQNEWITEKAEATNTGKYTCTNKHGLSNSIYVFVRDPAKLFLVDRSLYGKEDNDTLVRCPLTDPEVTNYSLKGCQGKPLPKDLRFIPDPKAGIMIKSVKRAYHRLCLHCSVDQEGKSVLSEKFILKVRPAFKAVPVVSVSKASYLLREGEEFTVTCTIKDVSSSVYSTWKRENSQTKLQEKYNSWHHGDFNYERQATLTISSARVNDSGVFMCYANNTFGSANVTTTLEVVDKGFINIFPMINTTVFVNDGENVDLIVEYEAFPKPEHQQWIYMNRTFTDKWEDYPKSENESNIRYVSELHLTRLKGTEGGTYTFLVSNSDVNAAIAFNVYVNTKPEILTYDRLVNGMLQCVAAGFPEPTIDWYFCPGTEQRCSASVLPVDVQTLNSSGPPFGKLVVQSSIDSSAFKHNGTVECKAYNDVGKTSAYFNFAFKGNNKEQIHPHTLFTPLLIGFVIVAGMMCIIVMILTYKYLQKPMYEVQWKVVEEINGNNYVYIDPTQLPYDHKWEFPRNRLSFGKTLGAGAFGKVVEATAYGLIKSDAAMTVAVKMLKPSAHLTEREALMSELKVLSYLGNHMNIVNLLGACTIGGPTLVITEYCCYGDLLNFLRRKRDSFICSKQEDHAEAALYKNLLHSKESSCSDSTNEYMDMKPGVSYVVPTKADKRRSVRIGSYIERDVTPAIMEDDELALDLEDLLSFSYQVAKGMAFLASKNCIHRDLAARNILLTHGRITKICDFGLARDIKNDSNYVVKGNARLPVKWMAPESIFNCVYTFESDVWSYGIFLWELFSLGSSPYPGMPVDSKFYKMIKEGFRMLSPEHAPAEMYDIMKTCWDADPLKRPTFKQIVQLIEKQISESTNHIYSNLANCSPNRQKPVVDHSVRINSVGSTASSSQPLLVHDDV
Serine/threonine-protein kinase BRSK1 (Homo sapiens), sequence (Q8TDC3 whole entry): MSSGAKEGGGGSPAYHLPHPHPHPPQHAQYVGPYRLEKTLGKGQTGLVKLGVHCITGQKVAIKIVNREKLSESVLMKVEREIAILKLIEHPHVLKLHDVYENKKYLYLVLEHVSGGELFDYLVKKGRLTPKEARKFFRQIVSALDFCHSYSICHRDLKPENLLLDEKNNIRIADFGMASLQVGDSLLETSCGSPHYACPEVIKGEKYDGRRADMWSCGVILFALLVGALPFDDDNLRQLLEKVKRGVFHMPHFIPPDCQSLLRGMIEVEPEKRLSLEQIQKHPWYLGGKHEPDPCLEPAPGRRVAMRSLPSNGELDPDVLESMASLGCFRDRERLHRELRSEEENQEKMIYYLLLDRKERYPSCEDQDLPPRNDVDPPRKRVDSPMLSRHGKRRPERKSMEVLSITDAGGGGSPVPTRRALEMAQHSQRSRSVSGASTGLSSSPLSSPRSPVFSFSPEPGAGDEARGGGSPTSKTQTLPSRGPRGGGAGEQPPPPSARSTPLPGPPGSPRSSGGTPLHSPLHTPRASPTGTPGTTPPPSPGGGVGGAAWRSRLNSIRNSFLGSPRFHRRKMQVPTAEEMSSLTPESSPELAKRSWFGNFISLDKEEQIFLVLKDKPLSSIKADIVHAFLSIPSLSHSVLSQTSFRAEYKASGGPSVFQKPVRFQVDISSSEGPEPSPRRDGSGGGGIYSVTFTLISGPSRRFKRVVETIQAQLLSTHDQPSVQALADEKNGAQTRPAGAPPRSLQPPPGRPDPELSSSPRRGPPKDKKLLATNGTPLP
BDNF/NT-3 growth factors receptor (Homo sapiens), sequence (Q16620 32-822 limits assumed): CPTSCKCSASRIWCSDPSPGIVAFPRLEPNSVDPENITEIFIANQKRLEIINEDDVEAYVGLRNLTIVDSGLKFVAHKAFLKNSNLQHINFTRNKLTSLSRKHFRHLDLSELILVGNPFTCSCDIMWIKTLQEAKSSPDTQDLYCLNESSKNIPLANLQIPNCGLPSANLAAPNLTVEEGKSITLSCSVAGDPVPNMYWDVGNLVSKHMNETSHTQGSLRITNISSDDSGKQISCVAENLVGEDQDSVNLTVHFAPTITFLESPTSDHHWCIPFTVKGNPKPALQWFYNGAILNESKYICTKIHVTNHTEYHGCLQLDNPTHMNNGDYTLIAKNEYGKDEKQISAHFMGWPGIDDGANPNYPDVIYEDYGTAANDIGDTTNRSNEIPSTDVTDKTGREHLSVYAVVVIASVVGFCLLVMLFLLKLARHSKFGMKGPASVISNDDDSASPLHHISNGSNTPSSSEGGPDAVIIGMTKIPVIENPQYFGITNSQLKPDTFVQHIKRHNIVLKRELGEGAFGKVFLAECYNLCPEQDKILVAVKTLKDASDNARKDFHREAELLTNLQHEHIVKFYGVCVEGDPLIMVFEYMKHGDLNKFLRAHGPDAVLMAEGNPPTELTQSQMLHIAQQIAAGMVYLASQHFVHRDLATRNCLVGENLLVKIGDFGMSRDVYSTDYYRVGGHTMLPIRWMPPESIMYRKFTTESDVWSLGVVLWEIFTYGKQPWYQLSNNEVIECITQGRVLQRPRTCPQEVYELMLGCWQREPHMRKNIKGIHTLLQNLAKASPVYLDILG
Serine/threonine-protein kinase MAK (Homo sapiens), sequence (P20794 whole entry): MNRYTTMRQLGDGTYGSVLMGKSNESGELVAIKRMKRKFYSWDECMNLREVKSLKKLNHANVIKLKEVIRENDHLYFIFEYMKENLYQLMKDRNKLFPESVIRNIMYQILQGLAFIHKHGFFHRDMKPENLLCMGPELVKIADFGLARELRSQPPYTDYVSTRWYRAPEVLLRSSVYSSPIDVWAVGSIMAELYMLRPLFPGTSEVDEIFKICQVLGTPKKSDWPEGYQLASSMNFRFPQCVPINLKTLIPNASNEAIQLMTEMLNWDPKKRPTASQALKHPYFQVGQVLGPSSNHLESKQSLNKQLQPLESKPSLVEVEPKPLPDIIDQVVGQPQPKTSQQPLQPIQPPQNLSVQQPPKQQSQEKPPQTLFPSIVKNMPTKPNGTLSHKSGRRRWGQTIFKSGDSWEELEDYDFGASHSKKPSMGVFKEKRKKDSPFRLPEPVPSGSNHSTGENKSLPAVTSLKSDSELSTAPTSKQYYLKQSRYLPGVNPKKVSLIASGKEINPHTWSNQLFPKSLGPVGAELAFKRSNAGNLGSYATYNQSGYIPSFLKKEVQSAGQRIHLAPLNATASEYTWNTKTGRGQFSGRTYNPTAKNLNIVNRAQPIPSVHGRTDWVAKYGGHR
Non-receptor tyrosine-protein kinase TNK1 (Homo sapiens), sequence (Q13470 whole entry): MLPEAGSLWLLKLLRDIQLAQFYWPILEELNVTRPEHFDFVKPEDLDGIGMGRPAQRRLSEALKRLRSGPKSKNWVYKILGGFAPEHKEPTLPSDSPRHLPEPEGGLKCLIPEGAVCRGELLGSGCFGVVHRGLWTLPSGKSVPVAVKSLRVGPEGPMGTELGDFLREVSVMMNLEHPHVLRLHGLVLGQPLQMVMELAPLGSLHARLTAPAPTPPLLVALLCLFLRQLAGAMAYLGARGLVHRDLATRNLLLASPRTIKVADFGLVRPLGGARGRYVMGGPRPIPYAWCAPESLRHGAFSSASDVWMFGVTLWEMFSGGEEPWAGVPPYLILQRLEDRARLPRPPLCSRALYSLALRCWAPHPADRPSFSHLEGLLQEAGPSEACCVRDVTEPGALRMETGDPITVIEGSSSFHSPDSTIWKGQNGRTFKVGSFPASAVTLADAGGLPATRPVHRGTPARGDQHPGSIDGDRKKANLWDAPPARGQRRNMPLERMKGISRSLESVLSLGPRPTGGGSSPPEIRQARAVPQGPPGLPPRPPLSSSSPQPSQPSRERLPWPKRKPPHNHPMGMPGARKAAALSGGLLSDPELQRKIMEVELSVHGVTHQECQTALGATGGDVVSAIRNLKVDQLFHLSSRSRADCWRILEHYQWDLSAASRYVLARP
Mast/stem cell growth factor receptor Kit (Homo sapiens), P10721 [D816V], sequence (P10721 whole entry D816V): as the sequence (P10721 whole entry) above, with D816V counted along it

## O=C(NS(=O)(=O)c1ccc(NCC2CCOCC2)c([N+](=O)[O-])c1)c1ccc(N2CCN(Cc3ccc(C(F)(F)F)cc3-c3ccc(Cl)cc3)CC2)cc1Oc1cnc2[nH]ccc2c1 [A-1210227]
[1]
  residual activity: 100%
[2]
  residual activity: 100%
[3]
  residual activity: 85%
[4]
  residual activity: 91%
[5]
  residual activity: 80%
[6]
  residual activity: 100%
[7]
  % Inhibition of Control Specific Binding (Mean n=2): 4.2%
[8]
  residual activity: 100%
[9]
  residual activity: 100%
[10]
  residual activity: 100%
[11]
  residual activity: 100%
[12]
  residual activity: 100%
[13]
  residual activity: 90%
[14]
  % Inhibition of Control Specific Binding (Mean n=2): 7.4%
[15]
  residual activity: 99%
[16]
  residual activity: 100%
[17]
  residual activity: 100%
[18]
  residual activity: 100%
[19]
  % Inhibition of Control Specific Binding (Mean n=2): -948%
[20]
  residual activity: 88%
[21]
  residual activity: 100%
[22]
  residual activity: 65%
[23]
  residual activity: 88%
[24]
  % Inhibition of Control Specific Binding (Mean n=2): 0.2%
[25]
  residual activity: 82%
[26]
  residual activity: 96%
[27]
  residual activity: 100%
[28]
  residual activity: 97%
[29]
  residual activity: 100%
[30]
  residual activity: 71%
[31]
  residual activity: 96%
[32]
  inhibition: 12.6%
[33]
  % Inhibition of Control Specific Binding (Mean n=2): 10%
[34]
  residual activity: 99%
[35]
  inhibition: -6.27%
[36]
  residual activity: 100%

## CO[C@H]1CC[C@H](CNc2ccc(S(=O)(=O)NC(=O)c3ccc(N4CCN(CC5=C(c6ccc(Cl)cc6)CC(C)(C)CC5)CC4)cc3Oc3cnc4[nH]ccc4c3)cc2[N+](=O)[O-])CC1 [A-1211212]
[1]
  residual activity: 100%
[2]
  residual activity: 96%
[3]
  residual activity: 90%
[4]
  residual activity: 74%
[5]
  residual activity: 71%
[6]
  residual activity: 71%
[7]
  % Inhibition of Control Specific Binding (Mean n=2): -1%
[8]
  residual activity: 83%
[9]
  residual activity: 100%
[10]
  residual activity: 78%
[11]
  residual activity: 100%
[12]
  residual activity: 95%
[13]
  residual activity: 98%
[14]
  % Inhibition of Control Specific Binding (Mean n=2): 2.8%
[15]
  residual activity: 99%
[16]
  residual activity: 85%
[17]
  residual activity: 73%
[18]
  residual activity: 87%
[19]
  % Inhibition of Control Specific Binding (Mean n=2): -22%
[20]
  residual activity: 100%
[21]
  residual activity: 100%
[22]
  residual activity: 50%
[23]
  residual activity: 87%
[24]
  % Inhibition of Control Specific Binding (Mean n=2): -6.1%
[25]
  residual activity: 77%
[26]
  residual activity: 81%
[27]
  residual activity: 100%
[28]
  residual activity: 90%
[29]
  residual activity: 91%
[30]
  residual activity: 64%
[31]
  residual activity: 92%
[32]
  inhibition: 3.65%
[33]
  % Inhibition of Control Specific Binding (Mean n=2): -2.7%
[34]
  residual activity: 100%
[35]
  inhibition: 8.17%
[36]
  residual activity: 100%
